Molecular target: T1, Human complement C1s enzyme (Homo sapiens, UniProt P09871)
T1 construct: purified from human serum, Complement Technology, Inc; purchased Complement Technology, Inc; host or cells: human serum (plasma-derived native protein)
T1 sequence (P09871 438-688 limits assumed): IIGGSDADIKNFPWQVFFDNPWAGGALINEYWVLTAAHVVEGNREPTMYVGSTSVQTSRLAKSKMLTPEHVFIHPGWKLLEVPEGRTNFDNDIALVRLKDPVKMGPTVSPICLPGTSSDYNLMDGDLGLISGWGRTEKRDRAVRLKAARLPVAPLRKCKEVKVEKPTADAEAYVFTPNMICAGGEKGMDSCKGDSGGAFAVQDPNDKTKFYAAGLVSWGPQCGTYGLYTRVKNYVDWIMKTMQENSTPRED
T1 sequence (P09871 16-437 partner limits assumed): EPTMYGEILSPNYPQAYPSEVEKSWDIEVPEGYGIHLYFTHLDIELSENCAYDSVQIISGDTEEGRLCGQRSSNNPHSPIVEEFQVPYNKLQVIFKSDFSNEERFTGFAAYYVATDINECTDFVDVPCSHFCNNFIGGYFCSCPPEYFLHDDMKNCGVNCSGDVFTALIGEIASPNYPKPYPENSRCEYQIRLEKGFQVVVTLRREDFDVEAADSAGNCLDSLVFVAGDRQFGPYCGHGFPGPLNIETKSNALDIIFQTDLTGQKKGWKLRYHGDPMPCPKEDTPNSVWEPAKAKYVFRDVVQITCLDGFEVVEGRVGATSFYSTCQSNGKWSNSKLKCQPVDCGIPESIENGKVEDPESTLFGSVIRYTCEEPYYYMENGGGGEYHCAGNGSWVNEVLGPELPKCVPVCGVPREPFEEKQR
Assay: Human C1s enzyme assay
Format: biochemical
Conditions: human complement C1s enzyme 1.16 nM, substrate Z-L-Lys-SBzl, A405; read-out: IC50 (Stars)
Method in brief: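 Serum-purified human C1s (1.16 nM final) preincubated 5 min at room temperature with compound in 50 mM Tris, 1 M NaCl, pH 7.5. Z-L-Lys-SBzl and DTNB added at 100 μM each; A405 recorded every 30 s. IC50 from nonlinear regression of reaction rates versus compound concentration.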

| Structure (SMILES) | IC50 [µM] |
| --- | --- |
| C[C@@H](Nc1cn(C)c(=O)n(CC(=O)NCc2cc3cnccc3[nH]2)c1=O)c1ccc2oc3ccccc3c2c1 [Compound 366, (R)—N-((1H-pyrrolo[3,2-c]pyridine-2-yl)methyl)-2-(5-((1-(dibenzo[b,d]furan-2-yl)ethyl)amino)-3-methyl-2,6-dioxo-3,6-dihydropyrimidin-1(2H)-yl)acetamide] | > 1 |
| O=C(Cn1c(-c2ccccc2)ncc(NC(=O)C2CCC(Oc3ccccc3)CC2)c1=O)NCc1cc2cnccc2[nH]1 (stereo not shown) [Compound 49, N-[6-oxo-1-[2-oxo-2-(1H-pyrrolo[3,2-c]pyridin-2-ylmethylamino)ethyl]-2-phenyl-pyrimidin-5-yl]-4-phenoxy-cyclohexanecarboxamide] | < 0.1 |
| O=C(Cn1c(-c2ccccc2)ncc(N2Cc3ccccc3C2)c1=O)NCc1cc2cnccc2[nH]1 [Compound 184, N-((1H-pyrrolo[3,2-c]pyridine-2-yl)methyl)-2-(5-(isoindolin-2-yl)-6-oxo-2-phenylpyrimidin-1(6H)-yl)acetamide] | > 1 |
| C[C@@H](Nc1cncn(CC(=O)NCc2cc3cnccc3[nH]2)c1=O)c1coc(-c2ccccc2)n1 [Compound 362, (R)-N-((1H-pyrrolo[3,2-c]pyridin-2-yl)methyl)-2-(6-oxo-5-((1-(2-phenyloxazol-4-yl)-ethyl)amino)pyrimidin-1(6H)-yl)acetamide] | 0.1 to 1 |
| O=C(Cn1c(-c2ccc(O[C@@H]3CO[C@H]4[C@@H]3OC[C@H]4O)cc2)ncc(NC(=O)c2cnc(-c3ccccc3)s2)c1=O)NCc1cc2cnccc2[nH]1 [Compound 263, N-(1-(2-(((1H-pyrrolo[3,2-c]pyridine-2-yl)methyl)amino)-2-oxoethyl)-2-(4-(((3R,3aR,6R,6aR)-6-hydroxyhexahydrofuro[3,2-b]furan-3-yl)oxy)phenyl)-6-oxo-1,6-dihydropyrimidin-5-yl)-2-phenylthiazole-5-carboxamide] | < 0.1 |
| O=C(Cn1c(-c2ccccc2)ncc(NCCCc2cc3ccc2CCc2ccc(cc2)CC3)c1=O)NCc1cc2cnccc2[nH]1 [Compound 113, 2-(5-((3-(1,4(1,4)-dibenzenacyclohexaphane-1^2-yl)propyl)amino)-6-oxo-2-phenylpyrimidin-1(6H)-yl)-N-((1H-pyrrolo[3,2-c]pyridine-2-yl)methyl)acetamide] | < 0.1 |
| O=C(Cn1c(-c2ccc(OC3COC3)cc2)ncc(NCCCc2ccccc2)c1=O)NCc1cc2cnccc2[nH]1 [Compound 86, N-((1H-pyrrolo[3,2-c]pyridine-2-yl)methyl)-2-(2-(4-(oxetan-3-yloxy)phenyl)-6-oxo-5-((3-phenylpropyl)amino)pyrimidin-1(6H)-yl)acetamide] | < 0.1 |
| O=C(Cn1c(-c2ccccc2)ncc(NCC2CCC(c3ccccc3)CC2)c1=O)NCc1cc2cnccc2[nH]1 (stereo not shown) [Compound 303, N-((1H-pyrrolo[3,2-c]pyridine-2-yl)methyl)-2-(6-oxo-2-phenyl-5-(((4-phenylcyclohexyl)methyl)amino)pyrimidin-1(6H)-yl)acetamide] | < 0.1 |
| O=C(Cn1c(-c2ccccc2)ncc(NC(=O)c2ccc3c(c2)-c2ccccc2C3(F)F)c1=O)NCc1cc2cnccc2[nH]1 [Compound 78, N-(1-(2-(((1H-pyrrolo[3,2-c]pyridin-2-yl)methyl)amino)-2-oxoethyl)-6-oxo-2-phenyl-1,6-dihydropyrimidin-5-yl)-9,9-difluoro-9H-fluorene-3-carbox-amide] | < 0.1 |

The remaining lines, values ahead:

| IC50 [µM] | Structure (SMILES) |
| --- | --- |
| > 1 | O=C(NCCOc1nc(-c2ccccc2)ncc1NCc1ccc2oc3ccccc3c2c1)c1cc2cnccc2[nH]1 [Compound 266, N-(2-((5-((dibenzo[b,d]furan-2-ylmethyl)amino)-2-phenyl-pyrimidin-4-yl)oxy)ethyl)-1H-pyrrolo[3,2-c]pyridine-2-carboxamide] |
| 0.1 to 1 | C[C@@H](Nc1c[nH]c(=O)n(CC(=O)NCc2cc3cnccc3[nH]2)c1=O)c1ccc2oc3ccccc3c2c1 [Compound 338, (R)-N-((1H-pyrrolo[3,2-c]pyridin-2-yl)methyl)-2-(5-((1-(dibenzo[b,d]furan-2-yl)ethyl)-amino)-2,6-dioxo-3,6-dihydro-pyrimidin-1(2H)-yl)acetamide] |
| < 0.1 | O=C(Cn1c(-c2ccc(F)cc2)ncc(NCc2ccc3oc4ccccc4c3c2)c1=O)NCc1cc2cnccc2[nH]1 [Compound 123, N-((1H-pyrrolo[3,2-c]pyridine-2-yl)methyl)-2-(5-((dibenzo[b,d]furan-2-ylmethyl)amino)-2-(4-fluorophenyl)-6-oxopyrimidin-1(6H)-yl)acetamide] |
| < 0.1 | O=C(Cn1c(-c2ccccc2)ncc(NCCCc2ccccc2)c1=O)NCc1cc2cnccc2[nH]1 [Compound 1, N-((1H-pyrrolo[3,2-c]pyridin-2-yl)methyl)-2-(6-oxo-2-phen-yl-5-((3-phenylpropyl)amino)-pyrimidin-1(6H)-yl)acetamide] |
| < 0.1 | C[C@@H](Nc1cnc(-c2ccc(OCCOCCOCCN)cc2)n(CC(=O)NCc2cc3cnccc3[nH]2)c1=O)c1ccc2oc3ccccc3c2c1 [Compound 452, (R)-N-((1H-pyrrolo[3,2-c]pyridin-2-yl)methyl)-2-(2-(4-(2-(2-(2-aminoethoxy)ethoxy)-ethoxy)phenyl)-5-((1-(dibenzo [b,d]furan-2-yl)ethyl)amino)-6-oxopyrimidin-1(6H)-yl)-acetamide] |
| < 0.1 | Cc1nc(-c2ccccc2)n(CC(=O)NCc2cc3cnccc3[nH]2)c(=O)c1N[C@H](C)c1ccc2oc3ccccc3c2c1 [Compound 336, (R)—N-((1H-pyrrolo[3,2-c]pyridin-2-yl)methyl)-2-(5-((1-(dibenzo[b,d]furan-2-yl)ethyl)amino)-4-methyl-6-oxo-2-phenylpyrimidin-1(6H)-yl)acetamide] |
| < 0.1 | O=C(Cn1c(-c2ccccc2)cnc(NC(=O)c2ccc3oc4ccccc4c3c2)c1=O)NCc1cc2cnccc2[nH]1 [Compound 101, N-(4-(2-(((1H-pyrrolo[3,2-c]pyridin-2-yl)methyl)amino)-2-oxoethyl)-3-oxo-5-phenyl-3,4-dihydropyrazin-2-yl)dibenzo [b,d]furan-2-carboxamide] |
| < 0.1 | C[C@@H](Nc1cnc(C2=CCCCC2)n(CC(=O)NCc2cc3cnccc3[nH]2)c1=O)c1ccc2oc3ccccc3c2c1 [Compound 325, (R)-N-((1H-pyrrolo[3,2-c]pyr-idin-2-yl)methyl)-2-(2-(cyclo-hex-1-en-1-yl)-5-((1-(dibenzo [b,d]furan-2-yl)ethyl)amino)-6-oxopyrimidin-1(6H)-yl)acet-amide] |
| < 0.1 | O=C(Cn1c(N2CCOCC2)ncc(NCc2ccc3oc4ccccc4c3c2)c1=O)NCc1cc2cnccc2[nH]1 [Compound 260, N-((1H-pyrrolo[3,2-c]pyridin-2-yl)methyl)-2-(5-((dibenzo [b,d]furan-2-ylmethyl)amino)-2-morpholino-6-oxopyrimidin-1(6H)-yl)acetamide] |
| < 0.1 | O=C(Cn1c(-c2ccc(NC(=O)CO)cc2)ncc(NCc2ccc3oc4ccccc4c3c2)c1=O)NCc1cc2cnccc2[nH]1 [Compound 147, N-((1H-pyrrolo[3,2-c]pyridine-2-yl)methyl)-2-(5-((dibenzo[b,d]furan-2-ylmethyl)amino)-2-(4-(2-hydroxyacetamido)phenyl)-6-oxopyrimidin-1(6H)-yl)acetamide] |
